Assay results published in patent publication US10106762B2, “Treating a textile garment with a hydrophobic dye solution” (Henkel IP & Holding GmbH, priority 2004, dated 2018).

How the values were obtained:
[1] = Optical density of dye solution; assay type: physicochemical; conditions: 200 ppb solution in water at 10 cm; extrapolated from measurement in ethanol solutions at higher levels
LogP of dye = assay type: physicochemical

Row | Compound | OD 10 cm [1] | logP (LogP of dye)
1 | COc1cc(/N=N/c2c(Br)cc([N+](=O)[O-])cc2[N+](=O)[O-])c(NC(C)=O)cc1N(CCOC(C)=O)CCOC(C)=O [Disperse Blue 79:1] | 0.048 | 4.5
2 | CCN(CC)c1ccc(/N=N/c2c(C#N)cc([N+](=O)[O-])cc2C#N)c(NC(C)=O)c1 [Disperse Blue 165] | 0.014 | 3.5
3 | Disperse Blue 367 | 0.0067 | –

Second part, the compound after the results:

Row | OD 10 cm [1] | logP (LogP of dye) | Compound
4 | 0.26 | 4.5 | CN=C1C=CC(=C(c2ccc(N(C)C)cc2)c2ccc(N(C)C)cc2)C=C1 [Solvent Violet 8, Solvent Violet 8 (Methyl Violet B Base)]
5 | 0.023 | 4 | CCN(CCO)c1ccc(/N=N/c2ccc([N+](=O)[O-])cc2)cc1 [disperse red 1]
6 | 0.11 | 8.5 | CC1(C)Nc2cccc3c(/N=N/c4ccc(/N=N/c5ccccc5)c5ccccc45)ccc(c23)N1 [solvent black 3]
7 | 0.33 | – | Solvent blue 43
